One experiment deals with PDE5. Briefly: Inhibition of PDE5 activity, two-step procedure. In kind it is biochemical. The conditions noted are these: homogenate of guinea pig lungs or hearts. As to the method:
Activities of PDE1~5 in the homogenate of guinea pig lungs or hearts were measured by a two-step procedure according to the previous method, using cAMP with [^3H]-cAMP or cGMP with [^3H]-cGMP as substrates. […] The reagents and homogenate were mixed on ice, and the reaction was initiated by transferring the mixture to a water bath at 37°C. Following a 30-min incubation, the reaction was stopped by transferring the reaction vessel to a bath of boiling water for 3 min. After cooling on ice, 20 μl of a 1 mg/ml solution of Crotalus atrox snake venom was added to the reaction mixture, and the mixture was incubated at 37°C for 10 min. Unreacted [^3H]-cAMP or [^3H]-cGMP was removed by the addition of 500 μl of a 1-in-1 Tris-HCl (40 mM) buffer suspension of Dowex resin (1 × 8-200) with incubation on ice for 30 min. Each tube was then centrifuged at 3700 g for 2 min, and 150 μl of the supernatant was removed for liquid scintillation counting. […] The total protein in each fraction used was assayed according to a previous method. PDE activities are reported as nmol/mg/min.

Experiment [1] concerns ovalbumin-induced airway hyperresponsiveness. The experiment can be described thus: Airway hyperresponsiveness, barometric plethysmography (Penh) in OVA-sensitized and challenged mice. In kind it is in vivo, BABL/c mice. As to the method: According to the schedule (Figure 1), ten female BABL/c mice in each group were sensitized by an intraperitoneal (i.p.) injection of 20 μg of OVA emulsified in 2.25 mg of an aluminum hydroxide gel, prepared from aluminum sulfate hexadecahydrate, in a total volume of 100 μl on days 0 and 14. On day 21, these mice were injected with (i.p.) 100 μl of a mixture of 1% OVA and Freund's complete adjuvant (1:1). Mice were challenged via the airway using 1% OVA in saline for 30 min on days 28, 29, and 30 by ultrasonic nebulization. After the last of OVA challenges, AHR was assessed on day 32 (48 h after 1% OVA provocation) in each group. […] For comparison, sham-treated mice were challenged with saline instead of 1% OVA (non-challenged). […] AHR was assessed using two methods: (1) in anesthetized ventilated mice, AHR was assessed as previously described by measuring changes in the airway resistance (RL, cmH2O/ml/sec) and lung dynamic compliance (Cdyn, ml/cmH2O) after challenge with aerosolized methacholine (MCh, 0.78~25 mg/ml) using the FlexiVent system (SCIREQ, Montreal, Quebec, Canada). Anesthetized (urethane 600 mg/kg and chloralose 120 mg/kg, i.p.), tracheostomized (stainless-steel cannula, 18 G) mice were mechanically ventilated (at 150 breaths/min, with a tidal volume of 10 ml/kg, positive end-expiratory pressure of 3 cmH2O). (2) in unrestrained animals by barometric plethysmography using a whole-body plethysmograph (WBP) and analyzed using software of Life Science Suite P3 Analysis Modules (Gould, LDS Test and Measurement LLC, Valley View, OH, USA). Mice were placed into the main chamber of the WBP, and the baseline enhanced pause (Penh) value was determined.

Experiment [2] concerns cytokines in bronchoalveolar lavage fluid. The experiment can be described thus: Cytokine levels in BALF of sensitized and challenged mice (CBA kits). In kind it is in vivo, BABL/c mice. As to the method: According to the schedule (Figure 1), ten female BABL/c mice in each group were sensitized by an intraperitoneal (i.p.) injection of 20 μg of OVA emulsified in 2.25 mg of an aluminum hydroxide gel, prepared from aluminum sulfate hexadecahydrate, in a total volume of 100 μl on days 0 and 14. On day 21, these mice were injected with (i.p.) 100 μl of a mixture of 1% OVA and Freund's complete adjuvant (1:1). Mice were challenged via the airway using 1% OVA in saline for 30 min on days 28, 29, and 30 by ultrasonic nebulization. After the last of OVA challenges, AHR was assessed on day 32 (48 h after 1% OVA provocation) in each group. […] For comparison, sham-treated mice were challenged with saline instead of 1% OVA (non-challenged). […] AHR was assessed using two methods: (1) in anesthetized ventilated mice, AHR was assessed as previously described by measuring changes in the airway resistance (RL, cmH2O/ml/sec) and lung dynamic compliance (Cdyn, ml/cmH2O) after challenge with aerosolized methacholine (MCh, 0.78~25 mg/ml) using the FlexiVent system (SCIREQ, Montreal, Quebec, Canada). Anesthetized (urethane 600 mg/kg and chloralose 120 mg/kg, i.p.), tracheostomized (stainless-steel cannula, 18 G) mice were mechanically ventilated (at 150 breaths/min, with a tidal volume of 10 ml/kg, positive end-expiratory pressure of 3 cmH2O). (2) in unrestrained animals by barometric plethysmography using a whole-body plethysmograph (WBP) and analyzed using software of Life Science Suite P3 Analysis Modules (Gould, LDS Test and Measurement LLC, Valley View, OH, USA). Mice were placed into the main chamber of the WBP, and the baseline enhanced pause (Penh) value was determined. […] Twenty-four hours after Penh determination, these mice were anesthetized with pentobarbital (50 mg/kg, i.p.), and the lungs were lavaged via a tracheal tube with PBS (1 × 1.0 ml, 37°C). After lavage, blood was collected from the jugular vein and allowed to sit so that it would coagulate. The collected bronchoalveolar lavage fluid (BALF) and coagulated blood were respectively centrifuged at 630 g for 7 min and at 3700 g for 10 min at 4°C. After centrifugation, the BALF and serum supernatants were stored at -20°C until determination of cytokines, including interleukin (IL)-2, IL-4, IL-5, tumor necrosis factor (TNF)-α, and interferon (IFN)-γ by flow cytometric methods using mouse T helper (Th)1/Th2 cytokine CBA kits, and of total immunoglobulin (Ig)E or IgG2a using ELISA kits (Pharmingen, San Diego, CA, USA) according to the respective recommendations of the manufacturers. OVA-specific IgE was measured as described previously. Wells were coated with 100 μl of OVA (20 μg/ml) instead of the capture antibody. Levels are expressed in arbitrary units, where 1 arbitrary unit equals the optical density of the sample divided by the optical density of unchallenged mouse serum or BALF (standard). The BALF pellet was resuspended in ACK lysing buffer (1.658 g NH4Cl, 0.2 g KHCO3 and 1.44 mg EDTA in 200 ml of water) to lyse the residual erythrocytes in each sample. The number of inflammatory cells was counted using a hemocytometer (Hausser Scientific, Horsham, PA, USA). Cytospun slides were stained and differentiated in a blinded fashion by counting at least 100 cells under light microscopy. All undetectable data (< 1 pg/ml) of cytokines were taken as 0 pg/ml.

Turning to `COc1cc(O)c2c(c1)O[C@H](c1ccc(OC)c(OC)c1)CC2=O` [HDME, hesperetin-7,3'-O-dimethylether], the IC50 in the experiment on PDE5 was greater than 100 µM. In addition, in experiment [1] (3 μmol/kg p.o.), the “Penh value at the baseline” value is reported as 2.45 ± 0.04 and the “Penh value with PBS nebulization” value is 2.43 ± 0.05. Moreover, in experiment [1] (10 μmol/kg p.o.), the “Penh value at the baseline” value amounted to 2.36 ± 0.05 and the “Penh value with PBS nebulization” value is reported as 2.38 ± 0.06. In experiment [1] (30 μmol/kg p.o.), the “Penh value at the baseline” value is given as 2.43 ± 0.03 and the “Penh value with PBS nebulization” value was 2.44 ± 0.06. In experiment [1] (3~30 μmol/kg p.o., 25 and 50 mg/ml MCh), the “effect on enhancement of Penh values induced by MCh” value was “dose-dependently and significantly attenuated”. Moreover, the “effect on level of IFN-γ in BALF” value in experiment [2] (30 μmol/kg p.o.) is reported as “enhanced”. Also, in experiment [2] (3~30 μmol/kg p.o.), the “effect on increase in level of IL-2 in BALF” value was “significantly suppressed”, the “effect on increase in level of IL-4 in BALF” value is “significantly suppressed”, the “effect on increase in level of IL-5 in BALF” value is on record as “significantly suppressed” and the “effect on increase in level of TNF-α in BALF” value is listed as “significantly suppressed”.

For orientation: IC50 means the concentration needed to halve the response being measured. A high value points to weaker potency.

The record behind these values is publication PMC3225327 (Journal of Biomedical Science, 2011).
